≈ marks a conversion by molar mass, not a printed value.
How the values were obtained:
HT-29 = assay: Cytotoxicity against human HT-29 cells after 48 hrs by MTT assay; type: functional, cell-based; conditions: HT-29, 48 h
Candida albicans = assay: Antimicrobial activity against Candida albicans by cup plate diffusion method; type: functional
HeLa = assay: Cytotoxicity against human HeLa cells after 48 hrs by MTT assay; type: functional, cell-based
[1] = Cytotoxicity against human PC3 cells after 48 hrs by MTT assay; type: functional, cell-based; conditions: PC-3, 48 h
Pseudomonas sp. = assay: Antimicrobial activity against Pseudomonas sp. by cup plate diffusion method; type: functional
Priestia megaterium = assay: Antimicrobial activity against Bacillus megaterium by cup plate diffusion method; type: functional
A549 = assay: Cytotoxicity against human A549 cells after 48 hrs by MTT assay; type: functional, cell-based; conditions: A549, 48 h
Escherichia coli = assay: Antimicrobial activity against Escherichia coli by cup plate diffusion method; type: functional
Bacillus subtilis = assay: Antimicrobial activity against Bacillus subtilis by cup plate diffusion method; type: functional
MCF7 = assay: Cytotoxicity against human MCF7 cells after 48 hrs by MTT assay; type: functional, cell-based; conditions: MCF7, 48 h

Row | Compound | IC50 (HT-29) | MIC (Candida albicans) | IC50 (HeLa) | IC50 [1] | MIC (Pseudomonas sp.) | MIC (Priestia megaterium) | IC50 (A549) | MIC (Escherichia coli) | MIC (Bacillus subtilis) | IC50 (MCF7)
1 | COC(=O)[C@H]1C[C@@H](C(=O)OC)[C@H]2ON=C(c3ccc(F)cc3)[C@H]21 | > 50 µg/mL | > 100 µg/mL | 20.1 µg/mL (≈ 62.6 µM) | > 50 µg/mL | > 100 µg/mL | > 100 µg/mL | > 50 µg/mL | > 100 µg/mL | > 100 µg/mL | 39.4 µg/mL (≈ 123 µM)
2 | N#Cc1ccc(C2=NO[C@H]3[C@@H]2[C@@H](C(=O)O)C[C@H]3C(=O)O)cc1 | 30.3 µg/mL (≈ 101 µM) | > 100 µg/mL | 33.3 µg/mL (≈ 111 µM) | > 50 µg/mL | > 100 µg/mL | > 100 µg/mL | > 50 µg/mL | > 100 µg/mL | > 100 µg/mL | > 50 µg/mL
3 | N#Cc1ccc(C2=NO[C@@H]3[C@H](CO)C[C@H](CO)[C@H]23)cc1 | > 50 µg/mL | 11 µg/mL (≈ 40.4 µM) | > 50 µg/mL | > 50 µg/mL | 2.1 µg/mL (≈ 7.71 µM) | 21 µg/mL (≈ 77.1 µM) | > 50 µg/mL | 2.1 µg/mL (≈ 7.71 µM) | 21 µg/mL (≈ 77.1 µM) | > 50 µg/mL
4 | O=C(O)[C@H]1C[C@@H](C(=O)O)[C@H]2ON=C(c3ccc4ccccc4c3)[C@H]21 | 29.7 µg/mL (≈ 91.3 µM) | > 100 µg/mL | > 50 µg/mL | > 50 µg/mL | > 100 µg/mL | > 100 µg/mL | > 50 µg/mL | > 100 µg/mL | > 100 µg/mL | 31.8 µg/mL (≈ 97.7 µM)
5 | O=C(O)[C@H]1C[C@@H](C(=O)O)[C@H]2ON=C(c3ccc(F)cc3)[C@H]21 | > 50 µg/mL | > 100 µg/mL | > 50 µg/mL | > 50 µg/mL | 7.8 µg/mL (≈ 26.6 µM) | > 100 µg/mL | > 50 µg/mL | 78 µg/mL (≈ 266 µM) | > 100 µg/mL | > 50 µg/mL
6 | COc1ccc(C2=NO[C@@H]3[C@H](CO)C[C@H](CO)[C@H]23)cc1OC | > 50 µg/mL | 4.6 µg/mL (≈ 15 µM) | > 50 µg/mL | > 50 µg/mL | 1.2 µg/mL (≈ 3.9 µM) | 46.8 µg/mL (≈ 152 µM) | > 50 µg/mL | 0.92 µg/mL (≈ 2.99 µM) | 46.8 µg/mL (≈ 152 µM) | > 50 µg/mL
7 | O=C(O)[C@H]1C[C@@H](C(=O)O)[C@H]2ON=C(c3ccccc3Cl)[C@H]21 | > 50 µg/mL | > 100 µg/mL | > 50 µg/mL | > 50 µg/mL | > 100 µg/mL | > 100 µg/mL | > 50 µg/mL | > 100 µg/mL | > 100 µg/mL | > 50 µg/mL
8 | OC[C@@H]1C[C@H](CO)[C@@H]2C(c3ccc(Br)cc3)=NO[C@H]12 | 37.3 µg/mL (≈ 114 µM) | > 100 µg/mL | > 50 µg/mL | > 50 µg/mL | > 100 µg/mL | 48.6 µg/mL (≈ 149 µM) | > 50 µg/mL | > 100 µg/mL | 48.6 µg/mL (≈ 149 µM) | > 50 µg/mL
9 | COC(=O)[C@H]1C[C@@H](C(=O)OC)[C@H]2ON=C(c3ccc(C)cc3)[C@H]21 | > 50 µg/mL | > 100 µg/mL | > 50 µg/mL | > 50 µg/mL | > 100 µg/mL | > 100 µg/mL | > 50 µg/mL | > 100 µg/mL | > 100 µg/mL | > 50 µg/mL
10 | COc1ccc(C2=NO[C@@H]3[C@H](CO)C[C@H](CO)[C@H]23)cc1 | > 50 µg/mL | > 100 µg/mL | > 50 µg/mL | > 50 µg/mL | > 100 µg/mL | > 100 µg/mL | 36.6 µg/mL (≈ 132 µM) | > 100 µg/mL | > 100 µg/mL | 23.7 µg/mL (≈ 85.5 µM)
11 | COc1ccc(C2=NO[C@H]3[C@@H]2[C@@H](C(=O)O)C[C@H]3C(=O)O)cc1OC | 40.6 µg/mL (≈ 121 µM) | 81.6 µg/mL (≈ 243 µM) | > 50 µg/mL | > 50 µg/mL | 44.2 µg/mL (≈ 132 µM) | > 100 µg/mL | > 50 µg/mL | 88.4 µg/mL (≈ 264 µM) | > 100 µg/mL | > 50 µg/mL
12 | Cc1ccc(C2=NO[C@@H]3[C@H](CO)C[C@H](CO)[C@H]23)cc1 | > 50 µg/mL | > 100 µg/mL | 26.5 µg/mL (≈ 101 µM) | 28 µg/mL (≈ 107 µM) | > 100 µg/mL | > 100 µg/mL | > 50 µg/mL | > 100 µg/mL | > 100 µg/mL | > 50 µg/mL
13 | C[C@@H]1[C@H](O)[C@@H](C)/C=C/C=C/C=C/C=C/C=C/C=C/C=C/[C@H](O[C@@H]2O[C@H](C)[C@@H](O)[C@H](N)[C@@H]2O)C[C@@H]2O[C@](O)(C[C@@H](O)C[C@@H](O)[C@H](O)CC[C@@H](O)C[C@@H](O)CC(=O)O[C@H]1C)C[C@H](O)[C@H]2C(=O)O [AMPHOTERICIN B] | – | 5 µg/mL (≈ 5.41 µM) | – | – | – | – | – | – | – | –
14 | COC(=O)[C@H]1C[C@@H](C(=O)OC)[C@H]2ON=C(c3ccc(C#N)cc3)[C@H]21 | > 50 µg/mL | > 100 µg/mL | > 50 µg/mL | > 50 µg/mL | > 100 µg/mL | > 100 µg/mL | > 50 µg/mL | > 100 µg/mL | > 100 µg/mL | > 50 µg/mL
15 | OC[C@@H]1C[C@H](CO)[C@@H]2C(c3ccccc3Cl)=NO[C@H]12 | 33.8 µg/mL (≈ 120 µM) | > 100 µg/mL | > 50 µg/mL | > 50 µg/mL | > 100 µg/mL | > 100 µg/mL | > 50 µg/mL | > 100 µg/mL | 74.4 µg/mL (≈ 264 µM) | > 50 µg/mL

Reference: ChEMBL document CHEMBL3739426, “Synthesis and biological evaluation of novel 2-isoxazoline fused cyclopentane derivatives as potential antimicrobial and anticancer agents” (Medchemcomm, 2015)
